From US9169241B2, “Quinolinyloxyphenylsulfonamides” (Max-Planck-Gesellschaft Zur Forderung der Wissenschaften …, priority 2009, dated 2015)

The molecules below were run against T1, wild type AXL (wtAXL) receptor tyrosine kinase (Homo sapiens, UniProt P30530) (assay: NIH-3T3-AXL cellular kinase assay (pY-AXL-ELISA)). Settings: NIH-3T3-AXL (clone 22) cells, serum depleted, compounds 1 h; Table Ia.
T1 construct: WtAXL cDNA was cloned into vector pLXSN(ESK) and transfected into Phoenix E packaging cells; expressed in transfected cells; host or cells: NIH3T3 N7 (mouse fibroblasts), retrovirally infected, clone 22
T1 sequence (P30530 26-894): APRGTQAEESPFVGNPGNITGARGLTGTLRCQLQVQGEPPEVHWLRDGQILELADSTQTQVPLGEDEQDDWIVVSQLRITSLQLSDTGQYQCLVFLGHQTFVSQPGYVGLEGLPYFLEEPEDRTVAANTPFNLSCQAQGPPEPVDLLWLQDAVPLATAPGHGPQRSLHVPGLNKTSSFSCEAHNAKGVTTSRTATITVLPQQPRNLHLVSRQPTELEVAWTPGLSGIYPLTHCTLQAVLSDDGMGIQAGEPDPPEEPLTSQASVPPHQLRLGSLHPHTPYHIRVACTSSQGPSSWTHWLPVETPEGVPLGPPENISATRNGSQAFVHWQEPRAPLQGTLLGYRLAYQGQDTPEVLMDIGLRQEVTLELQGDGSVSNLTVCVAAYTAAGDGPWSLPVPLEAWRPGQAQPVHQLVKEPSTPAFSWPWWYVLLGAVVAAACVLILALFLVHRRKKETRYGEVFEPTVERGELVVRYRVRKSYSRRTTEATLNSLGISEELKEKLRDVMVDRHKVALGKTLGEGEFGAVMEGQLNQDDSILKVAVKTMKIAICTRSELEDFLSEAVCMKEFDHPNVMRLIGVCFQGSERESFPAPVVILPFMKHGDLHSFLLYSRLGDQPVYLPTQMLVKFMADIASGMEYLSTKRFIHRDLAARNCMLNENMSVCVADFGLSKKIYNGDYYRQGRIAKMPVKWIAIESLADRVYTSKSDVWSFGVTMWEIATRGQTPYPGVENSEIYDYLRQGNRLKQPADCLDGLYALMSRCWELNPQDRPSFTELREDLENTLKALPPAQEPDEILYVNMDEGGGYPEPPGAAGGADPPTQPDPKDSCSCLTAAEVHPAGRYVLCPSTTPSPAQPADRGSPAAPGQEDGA
Assay type: cell-based
In short: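 NIH3T3 cells stably expressing human wild-type AXL (retroviral, puromycin-selected clones) were treated with serial compound dilutions for 1 h and lysed. AXL tyrosine phosphorylation was measured by ELISA on the lysates: biotinylated 4G10 anti-phosphotyrosine, streptavidin-alkaline phosphatase, AttoPhos fluorescence at 430/560 nm after 90 min.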

IC50, < 500 nM:
COc1cc2c(Oc3ccc(NS(=O)(=O)c4c(Cl)cccc4Cl)cc3F)ccnc2cc1OCCCN1CCCCC1 [Example 6, 2,6-Dichloro-N-{3-fluoro-4-[6-methoxy-7-(3-piperidin-1-yl-propoxy)-quinolin-4-yloxy]-phenyl}-benzenesulfonamide]
COc1cc2c(Oc3ccc(NS(=O)(=O)c4ccccc4[N+](=O)[O-])cc3F)ccnc2cc1OCCCN1CCCCC1 [Example 7, N-{3-Fluoro-4-[6-methoxy-7-(3-piperidin-1-yl-propoxy)-quinolin-4-yloxy]-phenyl}-2-nitro-benzenesulfonamide]
COc1cc2c(Oc3ccc(NS(=O)(=O)c4cccc(-c5ccccc5)c4)cc3F)ccnc2cc1OCCCN1CCCCC1 [Example 8, Biphenyl-3-sulfonic acid {3-fluoro-4-[6-methoxy-7-(3-piperidin-1-yl-propoxy)-quinolin-4-loxy]-phenyl}-amide]
COc1cc2c(Oc3ccc(NS(=O)(=O)c4cccc(Oc5ccccc5)c4)cc3F)ccnc2cc1OCCCN1CCCCC1 [Example 10, N-{3-Fluoro-4-[6-methoxy-7-(3-piperidin-1-yl-propoxy)-quinolin-4-yloxy]-phenyl}-3-phenoxy-benzenesulfonamide]
COc1cc2c(Oc3ccc(NS(=O)(=O)c4c(F)cccc4F)cc3F)ccnc2cc1OCCCN1CCCCC1 [Example 11, 2,6-Difluoro-N-{3-fluoro-4-[6-methoxy-7-(3-piperidin-1-yl-propoxy)-quinolin-4-yloxy]-phenyl}-benzenesulfonamide]
COc1cc2c(Oc3ccc(NS(=O)(=O)c4cc(Cl)cc(Cl)c4OC)cc3F)ccnc2cc1OCCCN1CCCCC1 [Example 34, 3,5-Dichloro-N-{3-fluoro-4-[6-methoxy-7-(3-piperidin-1-yl-propoxy)-quinolin-4-yloxy]-phenyl}-2-methoxy-benzenesulfonamide]
COc1cc2c(Oc3ccc(NS(=O)(=O)c4cc(Cl)cc(Cl)c4OC)cc3F)ccnc2cc1OCCCN1CCN(C)CC1 [Example 35, 3,5-Dichloro-N-(3-fluoro-4-{6-methoxy-7-[3-(4-methyl-piperazin-1-yl)-propoxy]-quinolin-4-yloxy}-phenyl)-2-methoxy-benzenesulfonamide]
COc1cc2c(Oc3ccc(NS(=O)(=O)c4ccccc4Cl)cc3F)ccnc2cc1OCCCN1CCCC(C)C1 (centres unmarked) [Example 38, 2-Chloro-N-(3-fluoro-4-{6-methoxy-7-[3-(3-methyl-piperidin-1-yl)-propoxy]-quinolin-4-yloxy}-phenyl)-benzenesulfonamide]
COc1cc2c(Oc3ccc(NS(=O)(=O)c4ccccc4[N+](=O)[O-])cc3F)ccnc2cc1OCCCN1CCCC(C)C1 (centres unmarked) [Example 40, N-(3-Fluoro-4-{6-methoxy-7-[3-(3-methyl-piperidin-1-yl)-propoxy]-quinolin-4-yloxy}-phenyl)-2-nitro-benzenesulfonamide]
COc1cc2c(Oc3ccc(NS(=O)(=O)c4ccccc4OC(F)(F)F)cc3F)ccnc2cc1OCCCN1CCCC(C)C1 (centres unmarked) [Example 45, N-(3-Fluoro-4-{6-methoxy-7-[3-(3-methyl-piperidin-1-yl)-propoxy]-quinolin-4-yloxy}-phenyl)-2-trifluoromethoxy-benzenesulfonamide]
COc1cc2c(Oc3ccc(NS(=O)(=O)c4ccc(F)cc4F)cc3F)ccnc2cc1OCCCN1CCCC(C)C1 (centres unmarked) [Example 47, 2,4-Difluoro-N-(3-fluoro-4-{6-methoxy-7-[3-(3-methyl-piperidin-1-yl)-propoxy]-quinolin-4-yloxy}-phenyl)-benzenesulfonamide]
COc1cc2c(Oc3ccc(NS(=O)(=O)c4ccc(F)c(F)c4F)cc3F)ccnc2cc1OCCCN1CCCC(C)C1 (centres unmarked) [Example 49, 2,3,4-Trifluoro-N-(3-fluoro-4-{6-methoxy-7-[3-(3-methyl-piperidin-1-yl)-propoxy]-quinolin-4-yloxy}-phenyl)-benzenesulfonamide]
COc1cc2c(Oc3ccc(NS(=O)(=O)c4c(Cl)cccc4Cl)cc3F)ccnc2cc1OCCCN1CCCC(C)C1 (centres unmarked) [Example 51, 2,6-Dichloro-N-(3-fluoro-4-{6-methoxy-7-[3-(3-methyl-piperidin-1-yl)-propoxy]-quinolin-4-yloxy}-phenyl)-benzenesulfonamide]
COc1cc2c(Oc3ccc(NS(=O)(=O)c4cccc(Cl)c4F)cc3F)ccnc2cc1OCCCN1CCCC(C)C1 (centres unmarked) [Example 54, 3-Chloro-2-fluoro-N-(3-fluoro-4-{6-methoxy-7-[3-(3-methyl-piperidin-1-yl)-propoxy]-quinolin-4-yloxy}-phenyl)-benzenesulfonamide]
COc1cc2c(Oc3ccc(NS(=O)(=O)c4cc(C)ccc4F)cc3F)ccnc2cc1OCCCN1CCCC(C)C1 (centres unmarked) [Example 55]
COc1cc2c(Oc3ccc(NS(=O)(=O)c4ccc(C)c(F)c4)cc3F)ccnc2cc1OCCCN1CCCC(C)C1 (centres unmarked) [Example 56, 3-Fluoro-N-(3-fluoro-4-{6-methoxy-7-[3-(3-methyl-piperidin-1-yl)-propoxy]-quinolin-4-yloxy}-phenyl)-4-methyl-benzenesulfonamide]
COc1cc2c(Oc3ccc(NS(=O)(=O)c4ccc(F)c(Cl)c4)cc3F)ccnc2cc1OCCCN1CCCC(C)C1 (centres unmarked) [Example 57, 3-Chloro-4-fluoro-N-(3-fluoro-4-{6-methoxy-7-[3-(3-methyl-piperidin-1-yl)-propoxy]-quinolin-4-yloxy}-phenyl)-benzenesulfonamide]
COc1cc2c(Oc3ccc(NS(=O)(=O)c4cccc5ccccc45)cc3F)ccnc2cc1OCCCN1CCCC(C)C1 (centres unmarked) [Example 58, Naphthalene-1-sulfonic acid (3-fluoro-4-{6-methoxy-7-[3-(3-methyl-piperidin-1-yl)-propoxy]-quinolin-4-yloxy}-phenyl)-amide]
COc1cc2c(Oc3ccc(NS(=O)(=O)c4cccc(Oc5ccccc5)c4)cc3F)ccnc2cc1OCCCN1CCCC(C)C1 (centres unmarked) [Example 59, N-(3-Fluoro-4-{6-methoxy-7-[3-(3-methyl-piperidin-1-yl)-propoxy]-quinolin-4-yloxy}-phenyl)-3-phenoxy-benzenesulfonamide]
COc1cc2c(Oc3ccc(NS(=O)(=O)c4ccc(Cl)s4)cc3F)ccnc2cc1OCCCN1CCCC(C)C1 (centres unmarked) [Example 63, 5-Chloro-thiophene-2-sulfonic acid (3-fluoro-4-{6-methoxy-7-[3-(3-methyl-piperidin-1-yl)-propoxy]-quinolin-4-yloxy}-phenyl)-amide]
COc1cc2c(Oc3ccc(NS(=O)(=O)c4c(F)cccc4F)cc3F)ccnc2cc1OCCCN1CCOCC1 [Example 77, 2,6-Difluoro-N-{3-fluoro-4-[6-methoxy-7-(3-morpholin-4-yl-propoxy)-quinolin-4-yloxy]-phenyl}-benzenesulfonamide]
COc1cc2c(Oc3ccc(NS(=O)(=O)c4ccccc4OC(F)(F)F)cc3F)ccnc2cc1OCCCN1CCCCC1 [Example 78, N-{3-Fluoro-4-[6-methoxy-7-(3-piperidin-1-yl-propoxy)-quinolin-4-yloxy]-phenyl}-2-trifluoromethoxy-benzenesulfonamide]
COc1cc2c(Oc3ccc(NS(=O)(=O)c4ccccc4F)cc3F)ccnc2cc1OCCN1CCOCC1 [Example 81, 2-Fluoro-N-{3-fluoro-4-[6-methoxy-7-(2-morpholin-4-yl-ethoxy)-quinolin-4-yloxy]-phenyl}-benzenesulfonamide]
COc1cc2c(Oc3ccc(NS(=O)(=O)c4c(F)cccc4F)cc3F)ccnc2cc1OCCN1CCOCC1 [Example 82, 2,6-Difluoro-N-{3-fluoro-4-[6-methoxy-7-(2-morpholin-4-yl-ethoxy)-quinolin-4-yloxy]-phenyl}-benzenesulfonamide]
COc1cc2c(Oc3ccc(NS(=O)(=O)c4ccccc4C(F)(F)F)cc3Cl)ccnc2cc1OCCCN1CCN(C)CC1 [Example 87, N-(3-Chloro-4-{6-methoxy-7-[3-(4-methyl-piperazin-1-yl)-propoxy]-quinolin-4-yloxy}-phenyl)-2-trifluoromethyl-benzenesulfonamide]
COc1cc2c(Oc3ccc(NS(=O)(=O)c4c(Cl)cccc4Cl)cc3F)ccnc2cc1OCCN1CCOCC1 [Example 104, 2,6-Dichloro-N-{3-fluoro-4-[6-methoxy-7-(2-morpholin-4-yl-ethoxy)-quinolin-4-yloxy]-phenyl}-benzenesulfonamide]
